Active and inactive are the calls of the source. No cut-off for these calls is given here.
Columns and labels:
[1] = biological target: Glycogen synthase kinase-3 beta (Homo sapiens, UniProt P49841); assay: Inhibition of GSK3beta (unknown origin) activity by competitive binding assay
Homo sapiens = species: Homo sapiens; assay: Selectivity ratio for GSK3beta (unknown origin) to CK2A2 (unknown origin)
Mus musculus = assay: Reduction in pTau396 level in LaFerla 3xTg-C57BL6 mouse at 30 mg/kg, po by ELISA; format: functional, organism-based; set-up: dose 30 mg/kg
[2] = Ratio of brain to plasma in LaFerla 3xTg-C57BL6 mouse at 30 mg/kg, po; format: ADME, organism-based; set-up: dose 30 mg/kg, route oral; details: brain and plasma, read-out: BPR

Glycogen synthase kinase-3 beta, sequence (P49841 whole entry): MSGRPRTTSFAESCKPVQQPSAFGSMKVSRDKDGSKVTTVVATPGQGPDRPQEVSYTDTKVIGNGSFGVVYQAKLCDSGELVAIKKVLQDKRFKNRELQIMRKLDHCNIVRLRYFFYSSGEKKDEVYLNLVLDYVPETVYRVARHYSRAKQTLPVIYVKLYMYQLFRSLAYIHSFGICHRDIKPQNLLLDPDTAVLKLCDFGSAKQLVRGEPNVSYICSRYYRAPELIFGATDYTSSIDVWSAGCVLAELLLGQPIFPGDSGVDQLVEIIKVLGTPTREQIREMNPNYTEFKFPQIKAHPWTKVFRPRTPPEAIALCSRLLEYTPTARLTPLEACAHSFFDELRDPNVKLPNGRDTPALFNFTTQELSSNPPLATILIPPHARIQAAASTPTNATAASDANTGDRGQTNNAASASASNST

SMILES	IC50 [1] [nM]	also measured
O=C(Nc1cc(-c2ccc3cccnc3c2)ccn1)C1CC1	240	
NC(=O)c1cnc(-c2ccnc(NC(=O)C3CC3)c2)cc1OCC(F)(F)F	6.8	
O=C1CCCc2cc(-c3ccnc(NC(=O)C4CC4)c3)ccc2N1	730	
CC(C)Oc1cc(-c2ccnc(NC(=O)C3CC3)c2)ncc1C(N)=O	4.4	
NC(=O)c1ccc(-c2ccnc(NC(=O)C3CC3)c2)cn1	90	
COc1cc(-c2ccnc(NC(=O)C3CC3)c2)ncc1C(N)=O	22	
COc1cc(-c2ccnc(NC(=O)C3CC3)c2)cnc1C(N)=O	7	
NC(=O)c1cnc(-c2ccnc(NC(=O)C3CC3)c2)cn1	30	
COc1nc(-c2ccnc(NC(=O)C3CC3)c2)ncc1C(N)=O	5.9	
O=C(Nc1cc(-c2ccc3ccccc3c2)ccn1)C1CC1	610	
O=C1NCc2cc(-c3ccnc(NC(=O)C4CC4)c3)ccc21	11	
COc1nc(-c2ccnc(NC(=O)C3CC3)c2)sc1C(N)=O	1.1	Ratio (Homo sapiens): 10; inhibition (Mus musculus): Active; Kp [2]: 0.26
O=C1NCCCc2cc(-c3ccnc(NC(=O)C4CC4)c3)ccc21	2.4	
O=C1NCCc2cc(-c3ccnc(NC(=O)C4CC4)c3)ccc21	2.4	inhibition (Mus musculus): Active
O=C1NCCOc2cc(-c3ccnc(NC(=O)C4CC4)c3)ccc21	4.7	
CC(C)Oc1nc(-c2ccnc(NC(=O)C3CC3)c2)ncc1C(N)=O	0.83	
NC(=O)c1ccc(-c2ccnc(NC(=O)C3CC3)c2)nn1	140	
NC(=O)c1sc(-c2ccnc(NC(=O)C3CC3)c2)nc1OCC1CC1	0.29	
CC(C)Oc1nc(-c2ccnc(NC(=O)C3CC3)c2)sc1C(N)=O	0.45	
Cc1nc(-c2ccnc(NC(=O)C3CC3)c2)sc1C(N)=O	37	
Cn1nc(C(N)=O)cc1-c1ccnc(NC(=O)C2CC2)c1	24	
O=C(Nc1cc(-c2ccc3ncccc3c2)ccn1)C1CC1	7.5	
NC(=O)c1cnc(-c2ccnc(NC(=O)C3CC3)c2)s1	13	
COc1sc(-c2ccnc(NC(=O)C3CC3)c2)nc1C(N)=O	30	Ratio (Homo sapiens): > 67
O=C(Nc1cc(-c2ccc3ccncc3c2)ccn1)C1CC1	74	
NC(=O)c1sc(-c2ccnc(NC(=O)C3CC3)c2)nc1OC1CCC1	0.37	

— ChEMBL document CHEMBL3407347, “Discovery of new acylaminopyridines as GSK-3 inhibitors by a structure guided in-depth exploration of chemical space around a pyrrolopyridinone core” (Bioorg Med Chem Lett, 2015)
